Patent US9783536B2, “Nitrogen-containing heterocyclic compound or salt thereof” (FUJIFILM Corporation, priority 2013, dated 2017)
Read-outs that look alike come from different tables or passages of the source.

Tests used:
[1] = molecular target: T1, GST fusion human ERK2 protein (Homo sapiens, UniProt P28482); assay: ERK2 enzyme assay (1); assay type: biochemical; details: read-out: ERK2 enzyme inhibitory activity (1)
T1 construct: purchased Carna Biosciences, Inc; host or cells: E. coli expression system
Method in brief: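 Enzyme (2.5 nmol/L, E. coli-expressed) preincubated with compound 15 min at room temperature in HEPES/MgCl2/DTT/Brij35 buffer, pH 7.5; reaction with 4.25 μmol/L FL-Peptide 8 and 43.1 μmol/L ATP for 120 min at 25 °C. Phosphorylated peptide fraction quantified by mobility-shift separation after EDTA stop; IC50 calculated.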

[2] = molecular target: T1, GST fusion human ERK2 protein; assay: ERK2 enzyme assay (2); assay type: biochemical; details: read-out: ERK2 enzyme inhibitory activity (2)
Method in brief: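 GST-tagged human ERK2 expressed in E. coli (1.25 nmol/L) was preincubated with compound for 15 min at room temperature in pH 7.5 Hepes buffer with MgCl2, DTT and Brij35. Reaction with FL-Peptide 8 (final 4.25 μmol/L) and ATP (final 1 mmol/L) ran 120 min at 25 °C; EDTA stopped it, and phosphorylated peptide was quantified by mobility-shift separation to derive IC50.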

CHO-K1 cells = assay: CHO cell toxicity test; assay type: cell-based, Chinese hamster; details: Cricetulus griseus; CHO-K1 cells, 24 hours culture with compound, CellTiter-Glo; read-out: IC50 value (concentration at which the number of viable cells was suppressed to 50% or less)
Method in brief: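 CHO-K1 cells were cultured 24 h, then exposed 24 h to compound at final 25.00 to 0.20 μmol/L in F-12 with 2% FCS. Viability read by CellTiter-Glo luminescence; inhibition % = 100 − (treated/untreated signal)×100.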

human PI3Kα protein = molecular target: T2, human PI3Kα protein (Homo sapiens, UniProt P42336); assay: PI3Kα enzyme assay (ADP-Glo); assay type: biochemical; details: read-out: PI3Kα enzyme inhibitory activity
T2 construct: purchased Carna Biosciences, Inc; host or cells: baculovirus expression system
Method in brief: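 Biotinylated human PI3Kα (baculovirus-expressed, 4.5 nmol/L) pre-incubated 15 min with compound in Tris-HCl pH 7.5, MgCl2, BSA; reaction 60 min at 25° C with 50 μmol/L PIP2 and 100 μmol/L ATP final. ADP quantified by ADP-Glo luminescence; IC50 calculated.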

[3] = 2.5 nmol/L ERK2, ATP 43.1 μmol/L
[4] = 4.5 nmol/L PI3Kα, PIP2 50 μmol/L, ATP 100 μmol/L

T1 sequence (P28482 whole entry, the tested form may be a part): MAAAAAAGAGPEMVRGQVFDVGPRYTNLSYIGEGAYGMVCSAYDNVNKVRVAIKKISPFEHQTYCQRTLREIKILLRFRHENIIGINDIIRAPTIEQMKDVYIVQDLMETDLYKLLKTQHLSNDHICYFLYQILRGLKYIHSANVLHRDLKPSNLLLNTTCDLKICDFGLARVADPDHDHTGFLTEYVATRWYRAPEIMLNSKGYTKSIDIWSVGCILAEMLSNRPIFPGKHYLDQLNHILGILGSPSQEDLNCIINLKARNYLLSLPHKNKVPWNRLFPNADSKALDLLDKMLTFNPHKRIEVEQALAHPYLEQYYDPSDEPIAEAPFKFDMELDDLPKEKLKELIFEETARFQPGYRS
T2 sequence (P42336 whole entry): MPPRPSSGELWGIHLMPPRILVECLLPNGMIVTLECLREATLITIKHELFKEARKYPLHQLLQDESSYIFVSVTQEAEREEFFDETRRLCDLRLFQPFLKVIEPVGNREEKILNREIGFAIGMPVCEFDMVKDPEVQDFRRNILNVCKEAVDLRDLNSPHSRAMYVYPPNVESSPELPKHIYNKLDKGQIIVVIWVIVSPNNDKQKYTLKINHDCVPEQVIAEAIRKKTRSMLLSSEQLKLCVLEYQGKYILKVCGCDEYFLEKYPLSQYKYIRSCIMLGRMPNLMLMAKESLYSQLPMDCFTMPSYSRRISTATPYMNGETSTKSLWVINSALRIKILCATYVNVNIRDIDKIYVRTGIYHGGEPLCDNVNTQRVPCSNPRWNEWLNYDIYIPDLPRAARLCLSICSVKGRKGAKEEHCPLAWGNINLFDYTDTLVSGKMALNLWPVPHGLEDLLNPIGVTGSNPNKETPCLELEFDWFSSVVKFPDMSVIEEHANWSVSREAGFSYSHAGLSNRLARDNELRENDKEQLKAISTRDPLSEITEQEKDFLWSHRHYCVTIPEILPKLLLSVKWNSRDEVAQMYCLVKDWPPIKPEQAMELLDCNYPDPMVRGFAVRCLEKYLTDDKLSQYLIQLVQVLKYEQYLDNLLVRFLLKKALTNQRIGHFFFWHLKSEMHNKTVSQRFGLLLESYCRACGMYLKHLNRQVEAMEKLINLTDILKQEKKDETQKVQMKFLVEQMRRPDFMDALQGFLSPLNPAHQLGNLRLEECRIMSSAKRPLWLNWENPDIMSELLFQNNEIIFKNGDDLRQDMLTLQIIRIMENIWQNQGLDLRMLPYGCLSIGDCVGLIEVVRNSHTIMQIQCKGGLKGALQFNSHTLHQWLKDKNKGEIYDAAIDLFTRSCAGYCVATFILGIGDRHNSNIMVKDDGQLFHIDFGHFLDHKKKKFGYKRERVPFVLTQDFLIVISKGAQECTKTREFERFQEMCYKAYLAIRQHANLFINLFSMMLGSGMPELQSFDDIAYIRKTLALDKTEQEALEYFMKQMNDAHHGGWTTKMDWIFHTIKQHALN
T2 sequence (P27986 whole entry partner): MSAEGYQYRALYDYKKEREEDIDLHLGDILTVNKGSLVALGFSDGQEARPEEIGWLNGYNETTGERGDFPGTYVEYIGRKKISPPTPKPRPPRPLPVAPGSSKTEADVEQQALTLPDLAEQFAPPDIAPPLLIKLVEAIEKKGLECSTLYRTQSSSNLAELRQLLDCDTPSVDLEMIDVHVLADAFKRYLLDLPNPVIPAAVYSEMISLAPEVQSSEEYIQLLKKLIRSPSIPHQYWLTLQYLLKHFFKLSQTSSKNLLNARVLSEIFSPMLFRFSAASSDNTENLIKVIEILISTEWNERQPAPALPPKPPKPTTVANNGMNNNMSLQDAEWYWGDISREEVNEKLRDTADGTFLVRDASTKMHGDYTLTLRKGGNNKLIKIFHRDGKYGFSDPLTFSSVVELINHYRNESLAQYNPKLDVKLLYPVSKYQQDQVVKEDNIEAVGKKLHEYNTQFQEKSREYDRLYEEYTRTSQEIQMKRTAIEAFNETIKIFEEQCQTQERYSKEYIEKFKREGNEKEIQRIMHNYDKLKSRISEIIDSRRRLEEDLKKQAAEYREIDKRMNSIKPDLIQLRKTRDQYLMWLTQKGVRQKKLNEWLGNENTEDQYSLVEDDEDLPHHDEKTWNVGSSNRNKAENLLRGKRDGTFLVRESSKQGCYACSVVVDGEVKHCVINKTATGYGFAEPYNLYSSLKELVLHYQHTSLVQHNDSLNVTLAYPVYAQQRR

SMILES	IC50 ([1]; ERK2 enzyme assay (1)) [nM]	IC50 ([2]; ERK2 enzyme assay (2)) [nM]	IC50 (CHO-K1 cells) [µM]	IC50 (human PI3Kα protein) [nM]	IC50 [1, 3] [nM]	IC50 ([2]; 1.25 nmol/L ERK2, ATP 1 mmol/L) [nM]	IC50 (human PI3Kα protein; [4]) [nM]
CCc1cnnc(Nc2ccc3ncc(-c4cnn(CCCN5CCCC5)c4)cc3n2)c1 [Example 0291]	< 1000	< 1000	≥ 25	< 1000	–	–	–
CC(C)c1cnnc(Nc2ccc3ncc(-c4cnn(CCCN5CCCC5)c4)cc3n2)c1 [Example 0148]	–	–	≥ 25	–	< 1000	< 1000	< 1000
Cc1cnnc(Nc2ccc3ncc(-c4cnn(C)c4)cc3n2)c1 [Example 0139]	–	–	≥ 25	–	< 1000	< 1000	< 1000
c1nnc(Nc2ccc3ncc(-c4cnn(CCCN5CCCC5)c4)cc3n2)s1 [Example 0322]	< 1000	< 1000	≥ 25	< 1000	–	–	–
CCCc1cnnc(Nc2ccc3ncc(-c4cnn(CCCN5CCCC5)c4)cc3n2)c1 [Example 0293]	< 1000	< 1000	≥ 25	< 1000	–	–	–
CCCc1nn(C)cc1-c1cnc2ccc(Nc3nnc(C(C)C)s3)nc2c1 [Example 0122]	–	–	≥ 25	–	< 1000	< 1000	< 1000
CC(C)c1cnnc(Nc2ccc3ncc(-c4cnn(CCCO)c4)cc3n2)c1 [Example 0473]	< 1000	< 1000	≥ 25	< 1000	–	–	–
Cn1cc(-c2cnc3ccc(Nc4nnc(C5CCOC5)s4)nc3c2)cn1 (centres unmarked) [Example 0243, N-(7-(1-methyl-1H-pyrazol-4-yl)-1,5-naphthyridin-2-yl)-5-(tetrahydrofuran-3-yl)-1,3,4-thiadiazole-2-amine]	< 1000	< 1000	≥ 25	< 1000	–	–	–
Cc1nnc(Nc2ccc3ncc(-c4cnn(C)c4)cc3n2)s1 [Example 0027]	–	–	≥ 25	–	< 1000	< 1000	< 1000
Cn1cc(-c2cnc3ccc(Nc4nnc(C5CCCO5)s4)nc3c2)cn1 (centres unmarked) [Example 0227]	< 1000	< 1000	≥ 25	< 1000	–	–	–
FC1(F)CCN(CCCn2cc(-c3cnc4ccc(Nc5nnc(C6CCCC6)s5)nc4c3)cn2)C1 [Example 0352]	< 1000	< 1000	≥ 25	< 1000	–	–	–
CC1(C)COc2nnc(Nc3ccc4ncc(-c5cnn(CCCN6CCCC6)c5)cc4n3)cc21 [Example 0401, 5,5-Dimethyl-N-(7-(1-(3-(pyrrolidin-1-yl)propyl)-1H-pyrazol-4-yl)-1,5-naphthyridin-2-yl)-5,6-dihydrofuro[2,3-c]pyridazine-3-amine]	< 1000	< 1000	≥ 25	< 1000	–	–	–
CC(C)c1cnnc(Nc2ccc3ncc(-c4cnn(C)c4)cc3n2)c1 [Example 0145]	–	–	≥ 25	–	< 1000	< 1000	< 1000
Cn1cc(-c2cnc3ccc(Nc4nnc(N5CCOCC5)s4)nc3c2)cn1 [Example 0226, N-(7-(1-methyl-1H-pyrazol-4-yl)-1,5-naphthyridin-2-yl)-5-morpholino-1,3,4-thiadiazole-2-amine]	< 1000	< 1000	≥ 25	1000 to 10000	–	–	–
Cc1nn(C)cc1-c1cnc2ccc(Nc3nnc(C4CCCC4)s3)nc2c1 [Example 0347]	< 1000	< 1000	≥ 25	< 1000	–	–	–
COc1cncc(Nc2cnc3ccc(Nc4nnc(CC5CCCO5)s4)nc3c2)c1 (centres unmarked) [Example 0250, N^7-(5-methoxypyridin-3-yl)-N^2-(5-((tetrahydrofuran-2-yl)methyl)-1,3,4-thiadiazol-2-yl)-1,5-naphthyridine-2,7-diamine]	< 1000	< 1000	≥ 25	< 1000	–	–	–
Cc1cnnc(Nc2ccc3ncc(-c4cnn(CCCN5CCCC5)c4)cc3n2)c1 [Example 0140]	–	–	≥ 25	–	< 1000	< 1000	< 1000

SMILES	IC50 ([1]; ERK2 enzyme assay (1)) [nM]	IC50 ([2]; ERK2 enzyme assay (2)) [nM]	IC50 (CHO-K1 cells) [µM]	IC50 (human PI3Kα protein) [nM]	IC50 [1, 3] [nM]	IC50 ([2]; 1.25 nmol/L ERK2, ATP 1 mmol/L) [nM]	IC50 (human PI3Kα protein; [4]) [nM]
COc1c(-c2cnn(C)c2)cnc2ccc(Nc3nnc(C4CCCC4)s3)nc12 [Example 0355, 5-cyclopentyl-N-(8-methoxy-7-(1-methyl-1H-pyrazol-4-yl)-1,5-naphthyridin-2-yl)-1,3,4-thiadiazole-2-amine]	< 1000	< 1000	≥ 25	< 1000	–	–	–
Cc1nn(CCCN2CCOCC2)cc1-c1cnc2ccc(Nc3cc(C(C)C)cnn3)nc2c1 [Example 0384, N-(5-isopropylpyridazin-3-yl)-7-(3-methyl-1-(3-morpholinopropyl)-1H-pyrazol-4-yl)-1,5-naphthyridine-2-amine]	< 1000	< 1000	≥ 25	< 1000	–	–	–
COCc1cnnc(Nc2ccc3ncc(-c4cnn(CCCN5CCCC5)c4)cc3n2)c1 [Example 0018]	–	–	≥ 25	–	< 1000	< 1000	< 1000
c1nc2ccc(Nc3nnc(CC4CCCO4)s3)nc2cc1-c1cnn(CCCN2CCCC2)c1 (centres unmarked) [Example 0240]	< 1000	< 1000	≥ 25	< 1000	–	–	–
OCC(O)Cn1cc(-c2cnc3ccc(Nc4nnc(C5CCCC5)s4)nc3c2)cn1 (centres unmarked) [Example 0338, 3-(4-(6-((5-Cyclopentyl-1,3,4-thiadiazol-2-yl)amino)-1,5-naphthyridin-3-yl)-1H-pyrazol-1-yl)propane-1,2-diol]	< 1000	< 1000	≥ 25	< 1000	–	–	–
c1cnnc(Nc2ccc3ncc(-c4cnn(CCCN5CCCC5)c4)cc3n2)c1 [Example 0137, N-(pyridazin-3-yl)-7-(1-(3-(pyrrolidin-1-yl)propyl)-1H-pyrazol-4-yl)-1,5-naphthyridine-2-amine]	–	–	≥ 25	–	< 1000	< 1000	< 1000
CC(C)c1cnnc(Nc2ccc3ncc(-c4cnn(CCCN5CCOCC5)c4)cc3n2)c1 [Example 0368]	< 1000	< 1000	≥ 25	< 1000	–	–	–
Cc1c(-c2cnc3ccc(Nc4nnc(C5CCCC5)s4)nc3c2)cnn1C [Example 0348]	< 1000	< 1000	≥ 25	1000 to 10000	–	–	–
CN(C)c1cnnc(Nc2ccc3ncc(-c4cnn(CCCN5CCCC5)c4)cc3n2)c1 [Example 0403, N^5,N^5-dimethyl-N^3-(7-(1-(3-(pyrrolidin-1-yl)propyl)-1H-pyrazol-4-yl)-1,5-naphthyridin-2-yl)pyridazine-3,5-diamine]	< 1000	< 1000	≥ 25	< 1000	–	–	–
c1nc2ccc(Nc3cc(C4CCC4)cnn3)nc2cc1-c1cnn(CCCN2CCCC2)c1 [Example 0015, N-(5-cyclobutylpyridazin-3-yl)-7-(1-(3-(pyrrolidin-1-yl)propyl)-1H-pyrazol-4-yl)-1,5-naphthyridine-2-amineformate]	–	–	≥ 25	–	< 1000	< 1000	< 1000
Cc1[nH]ncc1-c1cnc2ccc(Nc3nnc(C4CCCC4)s3)nc2c1 [Example 0214]	< 1000	< 1000	≥ 25	1000 to 10000	–	–	–
O=C(CCn1cc(-c2cnc3ccc(Nc4nnc(C5CCCC5)s4)nc3c2)cn1)N1CCCC1 [Example 0341, 3-(4-(6-((5-cyclopentyl-1,3,4-thiadiazol-2-yl)amino)-1,5-naphthyridin-3-yl)-1H-pyrazol-1-yl)-1-(pyrrolidin-1-yl)propan-1-one]	< 1000	< 1000	≥ 25	< 1000	–	–	–
CC(C)c1nnc(Nc2ccc3ncc(-c4cnn(CCCN5CCCC5)c4)cc3n2)s1 [Example 0365]	< 1000	< 1000	≥ 25	< 1000	–	–	–
CC(C)c1cnnc(Nc2ccc3ncc(-c4cnn(CCC(C)(C)O)c4)cc3n2)c1 [Example 0474]	< 1000	< 1000	≥ 25	< 1000	–	–	–
CCCCc1nn(C)cc1-c1cnc2ccc(Nc3nnc(C(C)C)s3)nc2c1 [Example 0130]	–	–	≥ 25	–	< 1000	< 1000	< 1000
c1n[nH]cc1Nc1cnc2ccc(Nc3nnc(C4CCC4)s3)nc2c1 [Example 0222, N^2-(5-cyclobutyl-1,3,4-thiadiazol-2-yl)-N^7-(1H-pyrazol-4-yl)-1,5-naphthyridine-2,7-diamine]	< 1000	–	≥ 25	< 1000	–	–	–
c1csc(Nc2ccc3ncc(-c4cnn(CCCN5CCCC5)c4)cc3n2)n1 [Example 0128]	–	–	≥ 25	–	< 1000	–	< 1000
